Reference: patent US6562584B1, “Bacterial strains for the production of 2-keto-L-gulonic acid” (priority 1998, dated 2003)

System: strains NRRL B-30035, NRRL B-30037N, and NRRL B-30036
Test: Antibiotic resistance by minimum inhibitory concentration (MIC), commercial "Pasco" system
Format: cell-based
Settings: strains NRRL B-30035 (ADM 291-19), NRRL B-30037N (ADM 62A-12A), NRRL B-30036 (ADM 266-13B), based on physiologically attainable concentrations of antibiotic
From the text: (6) Antibiotic resistance—sensitive to amikacin, augmentin (amoxicillin plus clavulonic acid), ampicillin, cefazolin, cefoxitin, ceftazidime, ceftiofur, cephalothin, enrofloxacin, florfenicol, gentamicin, imipenem, kanamycin, sarafloxicin, tetracycline, ticarcillin, and tilmicosin, but resistant to tribrissen ([…] plus sulfamethozole), as determined by minimum inhibitory concentration (MIC), based on physiologically attainable concentrations of antibiotic, employing the commercial “Pasco” system; and […]
In the case of `CS(=O)(=O)c1ccc([C@@H](O)[C@@H](CF)NC(=O)C(Cl)Cl)cc1` [florfenicol], the “Antibiotic resistance (sensitive / resistant) as determined by minimum inhibitory concentration (MIC)” value is reported as “sensitive”.
For `CC1(C)S[C@@H]2[C@H](NC(=O)[C@H](N)c3ccccc3)C(=O)N2[C@H]1C(=O)O` [ampicillin], the “Antibiotic resistance (sensitive / resistant) as determined by minimum inhibitory concentration (MIC)” value was “sensitive”.
For `CC[C@H]1OC(=O)C[C@@H](O)[C@H](C)[C@@H](O[C@@H]2O[C@H](C)[C@@H](O)[C@H](N(C)C)[C@H]2O)[C@@H](CCN2C[C@H](C)C[C@H](C)C2)C[C@@H](C)C(=O)/C=C/C(C)=C/[C@@H]1CO[C@@H]1O[C@H](C)[C@@H](O)[C@@H](OC)[C@H]1OC` [tilmicosin], the “Antibiotic resistance (sensitive / resistant) as determined by minimum inhibitory concentration (MIC)” value was “sensitive”.
With `CCN1CCN(c2cc3c(cc2F)c(=O)c(C(=O)O)cn3C2CC2)CC1` [enrofloxacin] the “Antibiotic resistance (sensitive / resistant) as determined by minimum inhibitory concentration (MIC)” value was “sensitive”.
For `O=C(O)c1cn(-c2ccc(F)cc2)c2cc(N3CCNCC3)c(F)cc2c1=O` [sarafloxicin], the “Antibiotic resistance (sensitive / resistant) as determined by minimum inhibitory concentration (MIC)” value was “sensitive”.
For `CC(C)(O/N=C(\C(=O)N[C@@H]1C(=O)N2C(C(=O)[O-])=C(C[n+]3ccccc3)CS[C@H]12)c1csc(N)n1)C(=O)O` [ceftazidime], the “Antibiotic resistance (sensitive / resistant) as determined by minimum inhibitory concentration (MIC)” value was “sensitive”.
With `NCC[C@H](O)C(=O)N[C@@H]1C[C@H](N)[C@@H](O[C@H]2O[C@H](CN)[C@@H](O)[C@H](O)[C@H]2O)[C@H](O)[C@H]1O[C@H]1O[C@H](CO)[C@@H](O)[C@H](N)[C@H]1O` [amikacin] the “Antibiotic resistance (sensitive / resistant) as determined by minimum inhibitory concentration (MIC)” value was “sensitive”.
In the case of `CC(=O)OCC1=C(C(=O)O)N2C(=O)[C@@H](NC(=O)Cc3cccs3)[C@H]2SC1` [cephalothin], the “Antibiotic resistance (sensitive / resistant) as determined by minimum inhibitory concentration (MIC)” value is reported as “sensitive”.
With `CO/N=C(\C(=O)N[C@@H]1C(=O)N2C(C(=O)O)=C(CSC(=O)c3ccco3)CS[C@H]12)c1csc(N)n1` [ceftiofur] the “Antibiotic resistance (sensitive / resistant) as determined by minimum inhibitory concentration (MIC)” value was “sensitive”.
For gentamicin, the “Antibiotic resistance (sensitive / resistant) as determined by minimum inhibitory concentration (MIC)” value was “sensitive”.
In the case of `CC1(C)S[C@@H]2[C@H](NC(=O)[C@H](C(=O)O)c3ccsc3)C(=O)N2[C@H]1C(=O)O` [ticarcillin], the “Antibiotic resistance (sensitive / resistant) as determined by minimum inhibitory concentration (MIC)” value is reported as “sensitive”.
In the case of `CO[C@@]1(NC(=O)Cc2cccs2)C(=O)N2C(C(=O)O)=C(COC(N)=O)CS[C@@H]21` [cefoxitin], the “Antibiotic resistance (sensitive / resistant) as determined by minimum inhibitory concentration (MIC)” value is reported as “sensitive”.
For `Cc1nnc(SCC2=C(C(=O)O)N3C(=O)[C@@H](NC(=O)Cn4cnnn4)[C@H]3SC2)s1` [cefazolin], the “Antibiotic resistance (sensitive / resistant) as determined by minimum inhibitory concentration (MIC)” value was “sensitive”.

System: mouse astrogial cells
Test: not given
Settings: Bishop et al., Nutrition Reviews 56:287-293 (1998); cited from earlier work
For `O=C(O)c1cc(C(=O)O)c2c(n1)C(=O)C(=O)c1cc(C(=O)O)[nH]c1-2` [PQQ, 2,7,9-tricarboxy-1H-pyrrolo[2,3-f]quino-line-4,5-dione], the “nerve growth factor synthesis” value is given as “increases”.
